Test system: CBS138 strain (wild strain)
Assay: Determination of 50% inhibitory concentration of antifungal drug on wild strain (turbidity at OD 600)
Assay type: cell-based, Candida glabrata
Settings: Nakaseomyces glabratus, SD medium, 30° C., 20 hours, turbidity at OD 600 decreased to about 50%

SMILES: OC(Cn1cncn1)(Cn1cncn1)c1ccc(F)cc1F [fluconazole]
- IC50: 50 µM

SMILES: CN(C/C=C/C#CC(C)(C)C)Cc1cccc2ccccc12 [terbinafine]
- IC50: 48 µM
